As a reminder, the IC50 is the midpoint of a concentration-inhibition curve.

The source of these data is patent US20230271969A1, “NITROGEN-CONTAINING FUSED RING DERIVATIVE INHIBITOR, PREPARATION METHOD THEREFOR AND USE THEREOF” (Shanghai Hansoh Biomedical Co., Ltd., priority 2020, published 2023).

Test [1] has as its target T1, NK3 receptors (Homo sapiens, UniProt P29371).
T1 construct: expressed in transfected cells
T1 sequence (P29371 1-465): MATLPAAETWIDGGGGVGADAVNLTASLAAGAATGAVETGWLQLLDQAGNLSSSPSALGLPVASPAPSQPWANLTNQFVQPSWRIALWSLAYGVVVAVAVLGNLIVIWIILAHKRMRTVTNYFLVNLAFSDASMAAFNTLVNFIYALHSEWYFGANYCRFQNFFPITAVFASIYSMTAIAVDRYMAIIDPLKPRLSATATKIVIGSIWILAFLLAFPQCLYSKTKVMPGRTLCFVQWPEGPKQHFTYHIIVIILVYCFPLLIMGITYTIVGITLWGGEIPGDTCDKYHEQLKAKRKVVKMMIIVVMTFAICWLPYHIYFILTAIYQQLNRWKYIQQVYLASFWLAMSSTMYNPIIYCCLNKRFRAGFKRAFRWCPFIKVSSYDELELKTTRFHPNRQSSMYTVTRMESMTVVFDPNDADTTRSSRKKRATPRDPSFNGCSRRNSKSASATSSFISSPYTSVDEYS
Nature of the test: Antagonism of IP1 in HEK293 cells with stable expression of NK3. The test is classed as cell-based. To be noted: agonist Senktide 3 nM, read-out: NK3R IC50 (nM) IP1.

In test [2] the target is T1, NK3 receptors. Nature of the test: Calcium ion fluidity (FLIPR) in cells with stable expression of NK3 receptors. The test is classed as cell-based. To be noted: calcium signal, antagonist mode, read-out: NK3R IC50 (nM) FLIPR.

As for `[2H]c1cc(C(=O)N2CCn3c(-c4nc(Cl)ns4)nnc3[C@H]2C)ccc1F` [Example 56, (R)-(3-(3-Chloro-1,2,4-thiadiazol-5-yl)-8-methyl-5,6-dihydro-[1,2,4]triazolo[4,3-a]pyrazin-7(8H)-yl)(4-fluorophenyl-3-d)methanone], the IC50 on NK3 receptors [1] is 76 nM; on NK3 receptors [2], 155 nM.
The corresponding values for `C[C@@H]1c2nnc(-c3nc4cnc(Cl)cc4s3)n2CCN1C(=O)c1ccc(F)cc1` [Example 37, (R)-(3-(6-Chlorothiazolo[4,5-c]pyridin-2-yl)-8-methyl-5,6-dihydro-[1,2,4]triazolo[4,3-a]pyrazin-7(8H)-yl)(4-fluorophenyl)methanone] are 56.5 nM and 48.9 nM.
